Experiments:
confluent BAEC [1] = assay: Total β-galactosidase expression measured fluorometrically in cell lysates; assay type: cell-based, bovine; conditions: for enhancement of β-galactosidase expression / gene transfer: lipofection; for increase in total β-galactosidase expression over transfection with plasmid alone: plasmid precomplexed with peptide, lipofectamine
Method: (§1) Bovine aortic endothelial cells (BAEC) (passage<10) are grown to confluence, passed to a 6-well culture dish at a split ratio of 1:3, and then grown to confluence as described by Subramanian, A. and Diamond, S. L. Tissue Engineering 3, 39-52, 1997. Growth medium is Dulbecco's modified Eagle's medium (DMEM) containing 10% heat inactivated newborn calf serum, 0.30 mg/ml of glutamine, 150 U/ml penicillin and 0.15 mg/ml streptomycin (GIBCO, Grand Island, N.Y.). Hela cells (Hela S3 ATCC No. CCL 2.2) are grown in DMEM media (Gibco BRL) supplemented with 10% fetal calf serum as described by Ranjan, V. and Diamond, S. L. Biochem. Biophys. Res. Comm. 196, 79, 1993.
(§2) Cationic liposomes (Lipofectamine Reagent, Gibco-BRL), containing a 3:1 by weight mixture of polycationic lipid 2,3-dioleoyloxy-N-[2(sperminecarboxamido)ethyl]-N,N-dimethyl-1 propanaminium trifluoroacetate (DOSPA) and the neutral lipid dioleoyl phosphatidylethanolamine (DOPE) was used in all transfections in accordance with procedures described by Subramanian, A. and Diamond, S. L. Tissue Engineering 3, 39-52, 1997. Pure liposome (10 μl) diluted to 100 μl are added to the DNA/scaffold complex, incubated for 45 minutes. Then 0.8 ml of OPTIMEM media is added to this mixture which is then overlaid on the cells. The cells are incubated for 2 hours at 37 ? C. After two hours, the mixture is aspirated, 4% serum in OPTIMEM media is added, and the cells are allowed to grow for 48 hours. The cells are then fixed and assayed for ? -gal activity. During the transfections, the cells are continuously monitored for cell viability and adhesion.
To assay for ? gal to measure % transfection, cells are stained with XGAL as described by Subramanian, A. and Diamond, S. L. Tissue Engineering 3, 39-52, 1997. The percent of cells stained per field of view is counted using a Zeiss 125M inverted microscope. The count is averaged from at least 4 fields of view for each transfected monolayer. To measure ? -gal expression quantitatively, cell lysates are prepared and tested for ? -gal activity against the fluorogenic substrate, fluorescein di- ? -D-galactopyranoside (FDG, F-1179 Molecular Probes) which is not fluorescent until cleaved to fluorescein monogalactoside and then to fluorescein (excitation/emission: 494/520 nM). For flow cytometry, the trypsinized cell suspension is supplemented with serum, pelleted (100 g) and resuspended in staining medium to approximately 10^7 cells/ml. A 100 μL cell suspension is maintained at 37 ? C and 100 μl of 2 mM FDG maintained at 37 ? C is then added to the cell suspension, mixed rapidly and incubated at 37 ? C for 1 minute. The FDG loading is stopped at the end of 1 minute by adding 1.8 mL of ice-cold staining medium containing 1.5 μM Propidium Iodide and 1 mM PETG. The cells are kept on ice prior to flow cytometer analysis using a Becton Dickinson FACScan system. Unstained BAEC cells allow compensation for autofluorescence. The histogram showing fluorescence/cell to the number of cells is used to calculate the % transfection.

confluent BAEC [2] = assay: Flow cytometry (FDG) of confluent BAEC lipofected with pCMVβgal ± peptides; assay type: cell-based, bovine; conditions: 1 μg plasmid
Method: as §1
as §2, with “The cells are incubated for 2 hours at 37 ? C. After two hours, the mixture is aspirated, 4% serum in OPTIMEM media is added, and the cells are allowed to grow for 48 hours. The cells are then fixed and assayed for ? -gal activity.” left out, “adhesion. […]” for “adhesion.”

plasmid = assay: Ethidium bromide fluorescence release assay of plasmid condensation; assay type: binding; conditions: electrostatic interactions
Text: Several different cationic scaffolds that are rich in amine suitable for conjugation reactions and which mediate electrostatic complexation or condensation with plasmid are used. These scaffolds can include: SV40 T antigen NLS (SVT=CGYGPKKKRKVGG (SEQ ID NO:5)), a mutated version of the SV40 T antigen NLS (muT=VKKGKCRPGKGYG (SEQ ID NO:2)), poly-L-lysine (MW 1, 4, and 30-70 kDa), histone H1, and hydrophilic amine-terminated dendrimers (87,340 MW) of small size (8.4 nm) available through Polysciences, Inc. (Warrington, Pa.). These scaffolds are tested for DNA condensation using a fluorescence quench assay of ethidium bromide labeled plasmid. Synthetic peptides with a C-terminus Gly-Gly-Gly-Cys-COOH (SEQ ID NO:19) linked to M9 or KNS are grafted at 1:1 to 3:1 to the activated amine-rich scaffolds. The crosslinker succinimidyl 4-(N-maleimidomethyl)cyclohexane-1 (SMCC, Pierce) is added at a final concentration of 10 mM (at 10% DMSO) to 100 μg amine rich scaffold (pH 7.2, 25 ? C for 2 hours) to react the SMCC NHS-ester to the primary amine of the scaffold. Excess SMCC and DMSO are removed by sephadex G-15 chromatography. The activated scaffold is conjugated with equimolar or 2 to 3-fold excess of the KNS or M9 peptide at 4 μC (16 hours) by maleimide reaction with the SH moiety of the C-terminal cysteine. Individual reaction species are isolated by electroelution or FLPC. […]

Substance | enhancement of β-galactosidase expression / gene transfer (confluent BAEC [1]) | percent transfection: percent of cells with fluorescence ≧100 f.u. (confluent BAEC [2]) | increase in total β-galactosidase expression over transfection with plasmid alone (confluent BAEC [1]) | plasmid condensation (plasmid)
CGYGPKKKRKVGG [SV40 T-antigen consensus NLS, reference compound] | A similar level of increase | – | – | –
NQSSNFGPMKGGNFGGRSSGPYGGGGQYFAKPRNQGGY-GGGC (NQSSNFGPMKGGNFGGRSSGPYGGGGQYFAKPRNQGGYGGGC; C-terminal GGGC extension) [M9 peptide] | – | 55% | 18.3 fold | –
VKKGKCRPGKGYG [ScT] | little benefit | – | 4 fold | condenses plasmid effectively
polylysine [reference compound] | A similar level of increase | – | – | –
